For 19 molecules, IC50 and inhibition results are on record in ChEMBL document CHEMBL1155398, “Design and evaluation of Trypanosoma brucei metacaspase inhibitors” (Bioorg Med Chem Lett, 2010).

Active and inactive are the calls of the source. The rule behind the calls is not given here.

The test system of one test is Trypanosoma cruzi. The experiment in a line: Antiparasitic activity against Trypanosoma cruzi amastigotes. In kind it is functional, organism-based.
For the next test, the target named is T1, Metacaspase-2 (Trypanosoma brucei, UniProt Q8T8E7).
T1 sequence (Q8T8E7 whole entry): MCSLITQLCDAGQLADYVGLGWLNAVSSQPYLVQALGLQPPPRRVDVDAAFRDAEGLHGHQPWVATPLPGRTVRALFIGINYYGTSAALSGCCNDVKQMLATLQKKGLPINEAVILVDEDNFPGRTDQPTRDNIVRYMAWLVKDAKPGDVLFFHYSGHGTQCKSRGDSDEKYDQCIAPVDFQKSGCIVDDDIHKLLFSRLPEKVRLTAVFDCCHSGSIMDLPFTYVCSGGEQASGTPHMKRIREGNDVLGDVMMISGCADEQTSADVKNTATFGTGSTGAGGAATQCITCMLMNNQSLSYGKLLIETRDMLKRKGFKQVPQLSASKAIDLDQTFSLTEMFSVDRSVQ
The experiment in a line: Inhibition of Trypanosoma brucei MAC2.

For another test, the system named is Plasmodium falciparum. Nature of the test: Antiparasitic activity against Plasmodium falciparum ring stage and schizont. In kind it is functional, organism-based.
A further test relates to Leishmania infantum. Nature of the test: Antiparasitic activity against Leishmania infantum amastigotes. In kind it is functional, organism-based.
In test [1] the test system is Trypanosoma brucei brucei. Nature of the test: Antiparasitic activity against Trypanosoma brucei brucei bloodstream form. Format: functional, organism-based.
The next test relates to MRC5. Nature of the test: Cytotoxicity against human MRC5 cells. Format: cell-based.
A further test has as its target T2, Caspase-3 (Homo sapiens) (UniProt P42574).
T2 sequence (whole entry): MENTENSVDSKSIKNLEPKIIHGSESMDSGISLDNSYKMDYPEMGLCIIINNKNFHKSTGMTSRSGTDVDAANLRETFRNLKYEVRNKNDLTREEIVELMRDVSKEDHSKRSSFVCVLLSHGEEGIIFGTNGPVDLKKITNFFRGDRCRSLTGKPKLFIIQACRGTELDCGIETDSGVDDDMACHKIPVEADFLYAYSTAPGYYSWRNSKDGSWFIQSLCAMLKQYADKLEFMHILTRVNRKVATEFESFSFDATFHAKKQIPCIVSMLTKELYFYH
The experiment in a line: Inhibition of human caspase 3.

Test [2] concerns the target T3, Metacaspase-3 (Trypanosoma brucei) (UniProt Q8T8E6).
T3 sequence (whole entry): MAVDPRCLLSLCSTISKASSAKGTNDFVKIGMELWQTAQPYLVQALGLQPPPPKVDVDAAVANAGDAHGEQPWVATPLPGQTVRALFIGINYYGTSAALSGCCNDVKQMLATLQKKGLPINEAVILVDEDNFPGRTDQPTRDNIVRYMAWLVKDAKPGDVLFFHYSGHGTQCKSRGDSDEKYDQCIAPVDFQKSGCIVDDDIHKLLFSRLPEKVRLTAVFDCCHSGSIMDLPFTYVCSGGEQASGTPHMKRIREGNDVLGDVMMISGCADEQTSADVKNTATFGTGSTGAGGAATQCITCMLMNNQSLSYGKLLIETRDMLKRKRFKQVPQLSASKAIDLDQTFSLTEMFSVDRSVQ
The experiment in a line: Inhibition of Trypanosoma brucei MAC3.

On to `N#CCN(CCCCN1CCN(c2ccc(F)cc2)CC1)C(=O)OCc1ccccc1`, for which the IC50 is 7 µM in the test with Trypanosoma cruzi; more than 100 µM on Metacaspase-2; more than 64 µM in the test with Plasmodium falciparum; more than 64 µM in the test on Leishmania infantum; 22.6 µM in test [1]; more than 64 µM in the test with MRC5.

In the case of `N#C[C@H](Cc1ccc(N)cc1)NC(=O)OCc1ccccc1`, the IC50 was 28.6 µM in the test with Trypanosoma cruzi; more than 100 µM against Metacaspase-2; 16.6 µM with Plasmodium falciparum; more than 64 µM with Leishmania infantum; 30.3 µM in test [1]; more than 64 µM in the test with MRC5.

For the molecule `NCCCC[C@H](NC(=O)OCc1ccccc1)C(=O)c1nc2ccccc2s1`, the IC50 in the test with Trypanosoma cruzi came out at 10.8 µM; at Metacaspase-2, 1.6 µM; in the test with Plasmodium falciparum, 3 µM; with Leishmania infantum, 22.8 µM; in test [1], 10.6 µM; in the test with MRC5 it was 20 µM.

In the case of `N=C(N)NCCC[C@@H](/C=C/S(=O)(=O)c1ccccc1)NC(=O)OCc1ccccc1`, the half-maximal inhibitory concentration (IC50) in the test with Trypanosoma cruzi was 19 µM; on Metacaspase-2, 3.9 µM; with Plasmodium falciparum, 3.4 µM; in the test on Leishmania infantum, more than 64 µM; in test [1], 45.3 µM; in the test with MRC5 it was more than 64 µM.

Consider `NC(N)=NCCCC[C@H](NC(=O)OCc1ccccc1)C(=O)c1nc2ccccc2s1`, for which the IC50 turned out to be 5.5 µM with Trypanosoma cruzi; 4 µM against Metacaspase-2; 5.6 µM in the test on Plasmodium falciparum; 45.4 µM with Leishmania infantum; 11.4 µM in test [1]; 19 µM in the test with MRC5.

For `N#CCN(CCCCN1CCCCC1)C(=O)OCc1ccccc1`, the IC50 in the test on Trypanosoma cruzi was more than 64 µM; against Metacaspase-2, more than 100 µM; with Plasmodium falciparum, 6.9 µM; in the test on Leishmania infantum, more than 64 µM; in test [1], more than 64 µM; in the test on MRC5, more than 64 µM.

With `N=C(N)NCCC[C@H](NC(=O)OCc1ccccc1)C(=O)c1nc2ccccc2s1`, the IC50 is 20.9 µM in the test on Trypanosoma cruzi; 0.6 µM against Metacaspase-2; 8 µM in the test on Plasmodium falciparum; more than 64 µM in the test with Leishmania infantum; 32.9 µM in test [1]; more than 64 µM in the test on MRC5. Moreover, the inhibition entry at Caspase-3 (Homo sapiens) is “inactive”. Further, in test [2], the inhibition result is “Active”.

With `N#CCN(CCCCN1CCN(C(c2ccc(F)cc2)c2ccc(F)cc2)CC1)C(=O)OCc1ccccc1`, the IC50 is 2.6 µM in the test on Trypanosoma cruzi; more than 100 µM against Metacaspase-2; 7.6 µM in the test with Plasmodium falciparum; 5.9 µM in the test on Leishmania infantum; 2.1 µM in test [1]; 11.3 µM with MRC5.

For the molecule `N#CCN(CCCCN1CCCC1)C(=O)OCc1ccccc1`, the half-inhibitory concentration (IC50) with Trypanosoma cruzi is more than 64 µM; on Metacaspase-2, more than 100 µM; with Plasmodium falciparum, 20.5 µM; in the test on Leishmania infantum, more than 64 µM; in test [1] it was 52.1 µM; in the test on MRC5, more than 64 µM.

For `N#C[C@H](Cc1ccc(NC(=N)N)cc1)NC(=O)OCc1ccccc1`, the IC50 is 27.2 µM in the test on Trypanosoma cruzi; more than 100 µM against Metacaspase-2; 25.4 µM with Plasmodium falciparum; more than 64 µM in the test with Leishmania infantum; more than 64 µM in test [1]; more than 64 µM in the test on MRC5.

Regarding `Cn1c(C(=O)[C@H](CCCNC(=N)N)NC(=O)OCc2ccccc2)nc2ccccc21`, the IC50 was 28.3 µM with Trypanosoma cruzi; 38.4 µM against Metacaspase-2; 7.1 µM in the test on Plasmodium falciparum; more than 64 µM with Leishmania infantum; 32.5 µM in test [1]; more than 64 µM in the test on MRC5. For the same molecule, the inhibition entry on Caspase-3 (Homo sapiens) is “inactive”. For the same molecule, the inhibition result in test [2] is “Active”.

With `CC(C)CC(NC(=O)OCc1ccccc1)C(=O)N[C@@H](CCCNC(=N)N)C(=O)c1nc2ccccc2s1` (some centres not stated), the IC50 was 5.6 µM in the test on Trypanosoma cruzi; 1.4 µM at Metacaspase-2; 2.6 µM with Plasmodium falciparum; 36.8 µM in the test on Leishmania infantum; 5.7 µM in test [1]; 29 µM in the test on MRC5.

On to `N#CCN(C(=O)OCc1ccccc1)C1CCNCC1`, for which the IC50 with Trypanosoma cruzi was 34.6 µM; on Metacaspase-2, more than 100 µM; with Plasmodium falciparum it was 28 µM; with Leishmania infantum, more than 64 µM; in test [1] it was 32.5 µM; in the test on MRC5 it was more than 64 µM.

Turning to `N#C[C@H](CCCNC(=N)N)NC(=O)OCc1ccccc1`, the IC50 is more than 64 µM with Trypanosoma cruzi; 1.9 µM on Metacaspase-2; 50.2 µM in the test with Plasmodium falciparum; more than 64 µM with Leishmania infantum; more than 64 µM in test [1]; more than 64 µM in the test with MRC5. Moreover, the inhibition result on Caspase-3 (Homo sapiens) is “inactive”. The inhibition entry in test [2] is “Active”.

As for `N#CCN(CCCCO)C(=O)OCc1ccccc1`, the IC50 in the test with Trypanosoma cruzi was more than 64 µM; on Metacaspase-2 it was more than 100 µM; with Plasmodium falciparum it was more than 64 µM; in the test on Leishmania infantum it was more than 64 µM; in test [1] it was more than 64 µM; in the test with MRC5 it was more than 64 µM.

Take `N#CCN(CCCCn1ccnc1)C(=O)OCc1ccccc1`: the IC50 in the test with Trypanosoma cruzi was 35.7 µM; against Metacaspase-2, more than 100 µM; in the test with Plasmodium falciparum, 17.2 µM; in the test with Leishmania infantum, more than 64 µM; in test [1], more than 64 µM; with MRC5, more than 64 µM.

Turning to `CC(C)C(NC(=O)OCc1ccccc1)C(=O)N[C@@H](CCCNC(=N)N)C(=O)c1nc2ccccc2s1` (some centres not stated), the IC50 with Trypanosoma cruzi was 7.3 µM; on Metacaspase-2 it was 1.1 µM; in the test with Plasmodium falciparum, 3.3 µM; in the test on Leishmania infantum it was more than 64 µM; in test [1], 11.2 µM; with MRC5, 32.6 µM.

On to `N=C(N)NCCC[C@H](NC(=O)OCc1ccccc1)C(=O)c1ccccn1`, for which the IC50 with Trypanosoma cruzi was more than 64 µM; at Metacaspase-2, 62 µM; in the test on Plasmodium falciparum it was more than 64 µM; in the test with Leishmania infantum, more than 64 µM; in test [1], more than 64 µM; in the test with MRC5, more than 64 µM. For the same molecule, the inhibition entry in test [2] is “Active”.

Turning to `N=C(N)NCCC[C@H](NC(=O)OCc1ccccc1)C(=O)c1nccs1`, the IC50 is 38.7 µM in the test on Trypanosoma cruzi; 2.2 µM against Metacaspase-2; 24.7 µM with Plasmodium falciparum; more than 64 µM in the test with Leishmania infantum; more than 64 µM in test [1]; more than 64 µM in the test with MRC5. The inhibition result in test [2] was “Active”.

In general, IC50 refers to the point on the concentration scale where inhibition reaches its midpoint. High values mean a need for much substance, low ones inhibition by little substance.
